Laboratory results taken from patent US20100267637A1, “TREATMENT OF MELANOMA WITH ALPHA THYMOSIN PEPTIDES IN COMBINATION WITH A KINASE INHIBITOR” (SciClone Pharmaceuticals, Inc., priority 2007, published 2010).

What was measured:
[1] = system: murine B16 melanoma cells; assay: Anti-tumor effect: tumor weight at necropsy (Day 16) in mice bearing subcutaneous B16 melanoma; type: in vivo, C57BL/6 mice
Description: (§1) The toxic effects of the dosing regimens were also monitored. […] Meanwhile 9H10 was given in two groups via i.p. on Day 3, 6 and 9. […] Tumor volume and body weight were measured every three days, and tumor weights were measured on Day 16 at the end of the study.
On the day of tumor implantation, approximately 1×10^6 cells in 0.1 mL were subcutaneously injected on the right axillary area of each mouse. The day of tumor implantation was defined as Day 0.
(§2) On Day 3, the animals were randomly assigned into nine different weight-matched and tumor-size-matched groups. Dosing was started on Day 3 using the regimen according to Table 2.
(§3) From Day 1 to Day 15, mortality and moribundity were checked twice daily, the body weights were recorded once every 3 days, and tumors were measured using a caliper once every 3 days. At the end of the study (Day 16), the animals were euthanized by CO2 asphyxiation, and the tumors were excised and weighed.
The anti-tumor effect of the test article was further evaluated with tumor weight (TW) measured on day of necropsy (Day 16). The PI of TW was calculated using the equation below:
PITW(%)=100×(TW vehicle−TW drug treated)/TW vehicle
(§4) Inter-group comparison was performed in terms of tumor volume, tumor weight and body weight, using a student's t test. P values of less than 0.05 were considered to be statistically significant.

[2] = Treatment toxicity: body weight and drug-induced animal deaths in B16 melanoma-bearing mice; type: in vivo, C57BL/6 mice
Description: as §1, §2, §3
Toxicity of all treatment regimens was evaluated with the body weights of the study animals along with the drug-induced animal deaths. The inhibition of body weight was calculated using Excel according to the equation below:
PIBW(%)=100×(BW vehicle−BW drug treated)/BW vehicle
as §4

**Q.** Which “Tumor weight on Day 16” value ([1]; animal F1) does the source give for `CN(C)/N=N/c1[nH]cnc1C(N)=O` [DTIC, Dacarbazine] here?
**A.** 1.40 g

**Q.** What about the “Tumor weight on Day 16” value ([1]; animal F2) of the same compound?
**A.** 0.43 g

**Q.** What about the “Tumor weight on Day 16” value ([1]; animal F3) of the same compound?
**A.** 0.47 g

**Q.** And the “Tumor weight on Day 16” value ([1]; animal F4)?
**A.** 0.68 g

**Q.** What about the “Tumor weight on Day 16” value ([1]; animal F5) of the same compound?
**A.** 0.56 g

**Q.** What about the “Tumor weight on Day 16” value ([1]; animal M1) of the same compound?
**A.** 1.80 g

**Q.** What about the “Tumor weight on Day 16” value ([1]; animal M2) of the same compound?
**A.** 1.80 g

**Q.** And the “Tumor weight on Day 16” value ([1]; animal M3)?
**A.** 0.83 g

**Q.** And the “Tumor weight on Day 16” value ([1]; animal M4)?
**A.** 2.30 g

**Q.** And the “Tumor weight on Day 16” value ([1]; animal M5)?
**A.** 1.90 g

**Q.** And the “Tumor Weight (g) (Mean ± SD)” value ([1]; group mean)?
**A.** 1.22 ± 0.699 g

**Q.** What about the “percent inhibition of tumor weight vs vehicle” value ([1]; vs vehicle) of the same compound?
**A.** 28.41%

**Q.** And the “Body Weight (g) (Mean ± SD)” value ([2]; Day 0 (tumor implantation, before dosing))?
**A.** 20.86 ± 1.294 g

**Q.** And the “Body weights on Day 0” value ([2]; Day 0, animal F1)?
**A.** 21.50 g

**Q.** What about the “Body weights on Day 0” value ([2]; Day 0, animal F2) of the same compound?
**A.** 19.90 g

**Q.** What about the “Body weights on Day 0” value ([2]; Day 0, animal F3) of the same compound?
**A.** 19.70 g

**Q.** And the “Body weights on Day 0” value ([2]; Day 0, animal F4)?
**A.** 19.30 g

**Q.** And the “Body weights on Day 0” value ([2]; Day 0, animal F5)?
**A.** 22.10 g

**Q.** And the “Body weights on Day 0” value ([2]; Day 0, animal M1)?
**A.** 22.40 g

**Q.** And the “Body weights on Day 0” value ([2]; Day 0, animal M2)?
**A.** 21.80 g

**Q.** And the “Body weights on Day 0” value ([2]; Day 0, animal M3)?
**A.** 21.00 g

**Q.** What about the “Body weights on Day 0” value ([2]; Day 0, animal M4) of the same compound?
**A.** 18.90 g

**Q.** What about the “Body weights on Day 0” value ([2]; Day 0, animal M5) of the same compound?
**A.** 22.00 g

**Q.** And the “Percent inhibition of body weight vs vehicle (PIBW)” value (shortened to “Percent inhibition of body weight”) ([2]; Day 0)?
**A.** −0.1440%

**Q.** What about the “Body Weight (g) (Mean ± SD)” value ([2]; Day 3 (start of dosing)) of the same compound?
**A.** 21.02 ± 0.993 g

**Q.** And the “Body weights on Day 3” value ([2]; Day 3, animal F1)?
**A.** 21.60 g

**Q.** And the “Body weights on Day 3” value ([2]; Day 3, animal F2)?
**A.** 19.60 g

**Q.** What about the “Body weights on Day 3” value ([2]; Day 3, animal F3) of the same compound?
**A.** 20.50 g

**Q.** What about the “Body weights on Day 3” value ([2]; Day 3, animal F4) of the same compound?
**A.** 20.30 g

**Q.** And the “Body weights on Day 3” value ([2]; Day 3, animal F5)?
**A.** 21.30 g

**Q.** What about the “Body weights on Day 3” value ([2]; Day 3, animal M1) of the same compound?
**A.** 22.20 g

**Q.** And the “Body weights on Day 3” value ([2]; Day 3, animal M2)?
**A.** 22.00 g

**Q.** What about the “Body weights on Day 3” value ([2]; Day 3, animal M3) of the same compound?
**A.** 21.20 g

**Q.** And the “Body weights on Day 3” value ([2]; Day 3, animal M4)?
**A.** 19.50 g

**Q.** What about the “Body weights on Day 3” value ([2]; Day 3, animal M5) of the same compound?
**A.** 22.00 g

**Q.** What about the “Percent inhibition of body weight” value ([2]; Day 3) of the same compound?
**A.** −0.6705%

**Q.** What about the “Body Weight (g) (Mean ± SD)” value ([2]; Day 6) of the same compound?
**A.** 20.41 ± 0.960 g

**Q.** And the “Body weights on Day 6” value ([2]; Day 6, animal F1)?
**A.** 20.40 g

**Q.** And the “Body weights on Day 6” value ([2]; Day 6, animal F2)?
**A.** 18.40 g

**Q.** And the “Body weights on Day 6” value ([2]; Day 6, animal F3)?
**A.** 19.70 g

**Q.** And the “Body weights on Day 6” value ([2]; Day 6, animal F4)?
**A.** 20.10 g

**Q.** What about the “Body weights on Day 6” value ([2]; Day 6, animal F5) of the same compound?
**A.** 20.50 g

**Q.** And the “Body weights on Day 6” value ([2]; Day 6, animal M1)?
**A.** 20.90 g

**Q.** What about the “Body weights on Day 6” value ([2]; Day 6, animal M2) of the same compound?
**A.** 21.80 g

**Q.** What about the “Body weights on Day 6” value ([2]; Day 6, animal M3) of the same compound?
**A.** 20.20 g

**Q.** And the “Body weights on Day 6” value ([2]; Day 6, animal M4)?
**A.** 20.50 g

**Q.** What about the “Body weights on Day 6” value ([2]; Day 6, animal M5) of the same compound?
**A.** 21.60 g

**Q.** And the “Percent inhibition of body weight” value ([2]; Day 6)?
**A.** −0.0490%

**Q.** And the “Body Weight (g) (Mean ± SD)” value ([2]; Day 9)?
**A.** 20.99 ± 1.049 g

**Q.** What about the “Body weights on Day 9” value ([2]; Day 9, animal F1) of the same compound?
**A.** 21.70 g

**Q.** What about the “Body weights on Day 9” value ([2]; Day 9, animal F2) of the same compound?
**A.** 19.50 g

**Q.** What about the “Body weights on Day 9” value ([2]; Day 9, animal F3) of the same compound?
**A.** 21.10 g

**Q.** And the “Body weights on Day 9” value ([2]; Day 9, animal F4)?
**A.** 19.50 g

**Q.** What about the “Body weights on Day 9” value ([2]; Day 9, animal F5) of the same compound?
**A.** 21.70 g

**Q.** What about the “Body weights on Day 9” value ([2]; Day 9, animal M1) of the same compound?
**A.** 21.30 g

**Q.** And the “Body weights on Day 9” value ([2]; Day 9, animal M2)?
**A.** 22.10 g

**Q.** What about the “Body weights on Day 9” value ([2]; Day 9, animal M3) of the same compound?
**A.** 20.60 g

**Q.** And the “Body weights on Day 9” value ([2]; Day 9, animal M4)?
**A.** 20.00 g

**Q.** And the “Body weights on Day 9” value ([2]; Day 9, animal M5)?
**A.** 22.40 g

**Q.** What about the “Percent inhibition of body weight” value ([2]; Day 9) of the same compound?
**A.** −2.8417%

**Q.** What about the “Body Weight (g) (Mean ± SD)” value ([2]; Day 12) of the same compound?
**A.** 22.09 ± 1.079 g

**Q.** What about the “Body weights on Day 12” value ([2]; Day 12, animal F1) of the same compound?
**A.** 22.50 g

**Q.** What about the “Body weights on Day 12” value ([2]; Day 12, animal F2) of the same compound?
**A.** 20.10 g

**Q.** What about the “Body weights on Day 12” value ([2]; Day 12, animal F3) of the same compound?
**A.** 21.40 g

**Q.** And the “Body weights on Day 12” value ([2]; Day 12, animal F4)?
**A.** 21.70 g

**Q.** And the “Body weights on Day 12” value ([2]; Day 12, animal F5)?
**A.** 22.20 g

**Q.** What about the “Body weights on Day 12” value ([2]; Day 12, animal M1) of the same compound?
**A.** 22.80 g

**Q.** And the “Body weights on Day 12” value ([2]; Day 12, animal M2)?
**A.** 23.40 g

**Q.** What about the “Body weights on Day 12” value ([2]; Day 12, animal M3) of the same compound?
**A.** 22.20 g

**Q.** What about the “Body weights on Day 12” value ([2]; Day 12, animal M4) of the same compound?
**A.** 21.00 g

**Q.** What about the “Body weights on Day 12” value ([2]; Day 12, animal M5) of the same compound?
**A.** 23.60 g

**Q.** What about the “Percent inhibition of body weight” value ([2]; Day 12) of the same compound?
**A.** −0.9137%

**Q.** What about the “Body Weight (g) (Mean ± SD)” value ([2]; Day 15) of the same compound?
**A.** 22.22 ± 1.963 g

**Q.** And the “Body weights on Day 15” value ([2]; Day 15, animal F1)?
**A.** 21.30 g

**Q.** What about the “Body weights on Day 15” value ([2]; Day 15, animal F2) of the same compound?
**A.** 18.70 g

**Q.** And the “Body weights on Day 15” value ([2]; Day 15, animal F3)?
**A.** 20.20 g

**Q.** And the “Body weights on Day 15” value ([2]; Day 15, animal F4)?
**A.** 22.20 g

**Q.** And the “Body weights on Day 15” value ([2]; Day 15, animal F5)?
**A.** 22.20 g

**Q.** What about the “Body weights on Day 15” value ([2]; Day 15, animal M1) of the same compound?
**A.** 24.50 g

**Q.** And the “Body weights on Day 15” value ([2]; Day 15, animal M2)?
**A.** 24.20 g

**Q.** And the “Body weights on Day 15” value ([2]; Day 15, animal M3)?
**A.** 22.70 g

**Q.** And the “Body weights on Day 15” value ([2]; Day 15, animal M4)?
**A.** 21.30 g

**Q.** What about the “Body weights on Day 15” value ([2]; Day 15, animal M5) of the same compound?
**A.** 24.90 g

**Q.** What about the “Percent inhibition of body weight” value ([2]; Day 15) of the same compound?
**A.** −0.3613%

**Q.** And the “body weight effect in words (loss / difference vs vehicle group)” value ([2]; throughout the course of the study)?
**A.** no statistical differences in body weights
